Literature values in patent US8273706B2, “Isobarically labeled analytes and fragment ions derived therefrom” (DH Technologies Development Pte. Ltd., priority 2004, dated 2012).

Details: alcohol (leaving group) whose trifluoroacetate ester forms the active ester of N-methyl piperazine acetic acid
In the case of `O=[N+]([O-])c1cccc(O)c1` [3-NP, 3-nitrophenol], the pKa is given as 8.33.
For `O=c1c2ccccc2nnn1O` [Dhbt, 3-hydroxy-1,2,3-benzotriazine-4(3H)-one], the pKa is listed as 7.78.
For `O=C1CCCN1O` [NHP, N-hydroxypyrrolidinone], the pKa is given as 9.38.
In the case of `O=C1CCC(=O)N1O` [NHS, N-hydroxysuccinimide], the pKa is given as 7.80.
In the case of `Oc1c(Cl)c(Cl)c(Cl)c(Cl)c1Cl` [Pcp, pentachlorophenol], the pKa is given as 4.68.
